From patent publication US7906620B2, “Tumor associated antigen, peptides thereof, and use of same as anti-tumor vaccines” (Yeda Research and Development Co. Ltd., priority 2002, dated 2011)

Experiments:
[1] = test system: peptide loaded on labeled RMA-S/HHD; experiment: Immunogenicity of peptides in HHD mice: vaccination with peptide-loaded RMA-S/HHD/B7.1, cytolytic assay on peptide-loaded targets; format: in vivo; conditions: for Score: immunogenic score: ratio of specific lysis, specific peptide vs tyrosinase peptide loaded on RMA-S/HHD, average of two experiments, positive above 125%; for antigenic / immunogenic in HHD mice: mouse, in vivo
Protocol: FIG. 4 is a graph of the results of in vitro cytolytic assays. Seven peptides are immunogenic. Peptides were loaded on RMA-S/HHD/B7.1, washed and irradiated. HHD mice were immunized three times as described in the materials and methods section in Example 1. In vitro cytolytic assays were performed on the relevant peptide as target and on an irrelevant peptide. The score was deduced from the ratio of the specific lysis that were obtained. The positive peptides (above 125%) are marked by arrows. Peptides 1-6, 3-5 and 3-7 are derived from “Human 1-8D gene”.
(§1) Vaccination. HHD mice were immunized i.p. 3 times at 7-day intervals with 2×10^6 irradiated (5000 rad) tumor cells, or irradiated peptide-loaded RMA-S/HHD/B7.1 transfectants. Spleens were removed on day 10 after the last immunization, and splenocytes were restimulated in vitro, either with irradiated tumor cells or with one third of the lymphocytes pre-pulsed with 100 μM synthetic peptides in opti-MEM (Life Technologies) for 2 hr at 37° C., 5% CO2. Restimulated lymphocytes were cultured in RPMI-HEPES medium containing 10% FCS, 2 mM glutamine, combined antibiotics, 1 mM sodium pyruvate, 25 mM HEPES, 5×10^−5M PME and 1% NEAA for 5 days. Viable cells (effectors) were separated by Lympholyte-M (Cedarlane, Hornby, Canada) gradient, resuspended and admixed at different ratios with 5,000 ^35S-methionine-labeled target cells. Cytolytic assays were carried out as described previously in Carmon et al., 2000. Extracts of tumor peptides or normal colon peptides were prepared from a pool of 6 post-surgical colon carcinoma specimens as described before Carmon et al., 2000.
The antigenic peptides were tested for their specific immunogenicity in HHD mice. HHD mice were vaccinated with RMA-S/HHD/B7.1 cells loaded with each of the peptides (listed in Table 3), their spleens were removed, and resensitized in vitro with synthetic peptides for four days. On the fifth day, a cytolytic assay was performed on two targets, either the peptide itself loaded on labeled RMA-S/HHD or the tyrosinase peptide as a negative control. The ratio of specific lysis between specific and tyrosinase peptides was defined as “immunogenic score”. This experiment was repeated twice and the average score of each of the antigenic peptides is specified (Table 3 and FIG. 4). The horizontal line in FIG. 4 represents the limit of 95% significance as defined by assuming normal distribution of scores.

HLA-A2.1 = biological target: T1, HLA-A2.1 (Homo sapiens, UniProt P04439, D140Y/D185E/D98H/E176V/E277Q/G131W/G231S/I119V/I121R/I166T/I218V/L300P/L318F/N151K/N90K/P208A/P217A/Q86G/Q94H/R138H/R169H/T345S); experiment: T2 stabilization assay (peptide binding to HLA-A2.1); conditions: acid stripped T2 cells, peptide and recombinant β2m, BB7.2 mAb, FACS
T1 construct: endogenous in cells; host or cells: T2 cells (TAP-2-deficient lymphoblastoid line)
Protocol: T2 cells were acid stripped and incubated with the indicated peptide and recombinant β2m or with β2m alone as a negative control. FIG. 5D is the tyrosinase peptide as the positive control. Cells were stained with BB7.2 mAb and analyzed by FACS. The number of positive cells above control level is indicated for each of the peptides.
(§2) Intrigued by this finding, the laboratory of the present inventors focused on the 1-8D peptides. Peptide binding to HLA-A2.1 was verified by a T2 stabilization assay (Firat et al., 1999). […] 1-8D peptides were next tested for induction of anti-HCT/HHD CTL responses by vaccinating HHD mice with the 1-8D peptides (Carmon et al., 2000).

HCT/HHD cells [2] = experiment: Anti-HCT/HHD CTL response after vaccination of HHD mice with 1-8D peptides; format: in vivo; conditions: for lysis of HCT/HHD by peptide-induced CTL: HHD mice immunized with peptide loaded on RMA-S/HHD/B7.1; for ranking as vaccine against HCT/HHD (in vitro cytolytic capacity): mouse, in vivo
Protocol: FIG. 6 is a graph showing that the 1-8D peptides can mount anti-HCT/HHD CTL responses. HHD mice were immunized with HCT/HHD/B7.1 and with peptide loaded on RMA-S/HHD/B7.1. In vitro cytolytic assays were performed using HCT/HHD cells as targets. The specific lysis at E:T in 50:1 ratio of a representative experiment out of three is shown.
as §1, §2

[3] = test system: EL4/HHD/1-8D transfected cells; experiment: Lysis of 1-8D transfectants by CTL from peptide-immunized HHD mice; format: in vivo; conditions: high background lysis of EL4/HHD
Protocol: FIGS. 8A-8C are graphs that show 1-8D peptides 1-6 (FIG. 8A), 3-5 (FIG. 8B), and 3-7 (FIG. 8C) mount CTL responses that lyse 1-8D transfectants. Each peptide was loaded on RMA-S/HHD/B7.1 and used to immunize HHD mice. In vitro cytolytic assays were performed using EL4/HHD cells (open circles) and EL4/HHD/1-8D transfected cells (dark circles) as a target. The specific lysis of a representative experiment out of three is shown.
The 1-8D peptides are presented by HHD molecules on HCT/HHD cells. […] The plasmid was stably transfected into EL4 cells together with an HHD plasmid. HHD mice were immunized with the 1-8D peptides and a cytolytic assay was performed. The susceptibility of EL4/HHD/1-8D transfectant and the parental EL4/HHD cells to be lysed by anti-1-8D lymphocytes were compared. FIG. 8A-8C summarizes the results of these cytolytic experiments.

HCT/HHD cells [4] = experiment: Adoptive transfer of anti-1-8D peptide lymphocytes to nude mice bearing HCT/HHD footpad tumors; format: in vivo, CD1-nude mice; conditions: for day from which retardation in tumor growth is significant (P<0.05): 10^7 restimulated lymphocytes i.v. three days post challenge, IL-2, one tailed student t-test
Protocol: FIG. 9 is a graph showing that nude mice were challenged in the foot pad with HCT/HHD cells. Lymphocyte from vaccinated HHD mice were transferred together with IL-2 to the tumor bearing mice and the growth of the tumor was monitored twice a week.
Adoptive transfer. CD1-nude mice were challenged in the footpad with 3×10^6 HCT/HHD cells. Three days later, 10^7 viable re-stimulated effector cells were injected i.v. to the tail vein. One thousand units of IL-2, was injected i.p. twice a day for 7 consecutive days post transfer. Tumor growth was monitored by measuring the diameter of the footpad with calipers. Mice were sacrificed when one of the tumor diameters reached 10 mm.
The anti-tumor efficacy of anti-1-8D peptide CTL was evaluated next. A transfer model, in which HCT/HHD cells were inoculated to the footpads of nude mice, was established. Three days post footpad challenge, in vitro restimulated HHD lymphocytes were transferred i.v. and the tumor growth was monitored.

peptide pulsed T2 cells = experiment: In vitro priming of human CTL precursors with 1-8D peptides; format: cell-based; conditions: for activating peripheral CTLp to lyse target cells in a peptide specific manner: PBMC of two normal donors, after 4 consecutive stimulations
Protocol: FIG. 10 are graphs showing PMBC from 4 donors checked for existence of CTL precursors. Left hand panel-peptide 1-6 stimulated CTLp. Middle Panel-peptide 3-5 stimulated CTLp. Right hand panel-peptide 3-7 stimulated CTLp. […] PBMC were supplemented with IL-7, and two days later IL-2 was added and renewed every three days. The rest of the stimulations were done every 7 days over peptide pulsed monocytes. Seven days after the third stimulation, lymphocytes were harvested and a cytolytic assay was performed using peptide pulsed (closed squares, closed circles, open triangles, X signs) or non-pulsed T2 cells (open circles) as targets. Closed squares represent CTLp from donor A, closed circles represent CTLp from donor B, open triangles represent CTLp from donor C, Xs represent CTLp from donor D, and open circles represent non-pulsed T2 cells.
In vitro priming of human CTL. Leukopheresis products of four healthy donors were obtained from Barzilai Medical Center (Ashkelon, Israel) according to Declaration of Helsinki Principles. PMBC were isolated by centrifugation on Ficoll-Plaque Plus gradients (Amersham, Sweden). The procedure was carried out according to Thurner et al., with minor modifications. Briefly, in vitro priming was done over autologous DC that were prepared from monocytes by IL-4 and GM-CSF treatment and matured with a IL-1β, IL-6, TNF-α and PGE2 cocktail. DC were pulsed with the synthetic peptides and PBMC were supplemented with IL-7. Two days later IL-2 was added and renewed every three days. The rest of the stimulations were done every 7 days over peptide pulsed monocytes. […]

EL4/HHD cells = experiment: Immunogenicity of PSGR-derived peptides in HHD mice (peptide-loaded dendritic cells); conditions: mouse, in vivo
Protocol: FIGS. 15A and 15B are graphs showing immunogenicty of PSGR-derived peptides in HHD mice. The mice were immunized i.v. three time with 1×10^6 syngeneic dendritic cells (DCs) loaded with either PSGR-1 or PSGR-6 peptides. Spleens were removed on day 10 after the last immunization, and splenocytes were re-stimulated in vitro by 100 μM PSGR-1 (FIG. 15A) or PSGR-6 (FIG. 15B) derived peptides in OPTIMEM for 2 h at 37° C., 5% CO2, followed by restimulation of lymphocytes for 4 more days in RPMI-HEPES. CTL assays were performed on day 5 with individual PSGR-1 or PSGR-6 derived peptides loaded on EL4/HHD cells as targets. Non-relevant PAP derived peptide-loaded EL4/HHD cells were used as negative controls. 100:1, 50:1, 25:1, 12.5:1 effector-to-target ratios are shown.
The immunogenicity of the peptides, namely their potential to induce T cell responses, was subsequently examined in an in vivo model. A strain of β2 microglobulin (β2m) HLA-A2.1 Monochain Transgenic, H-2D^b−/−Xβ2m^−/− double knockout mice (HHD mice) was used. Upon vaccination of these mice, a repertoire of human HLA-A2.1 restricted CTLs is produced. The lysis patterns of each of the individual peptides loaded on target cells were first evaluated following immunization with syngeneic dendritic cells pulsed with pools of 2-4 synthetic peptides derived from each examined protein.

[5] = test system: peptide loaded on labeled RMA-S/HHD; conditions: F. A. Lemonnier, unpublished; cited from earlier work
[6] = healthy donor PBMC, peptide pulsed vs non-pulsed T2 targets

Sequence | Score [1] | antigenic / immunogenic in HHD mice [1] | binding to HLA-A2.1 (stabilization of HLA-A2 on T2 cells) (HLA-A2.1) | lysis of HCT/HHD by peptide-induced CTL (HCT/HHD cells [2]) | ranking as vaccine against HCT/HHD (in vitro cytolytic capacity) (HCT/HHD cells [2]) | lysis of 1-8D transfectant compared to EL4/HHD cells [3] | day from which retardation in tumor growth is significant (P<0.05) (HCT/HHD cells [4]) [days] | activating peripheral CTLp to lyse target cells in a peptide specific manner (peptide pulsed T2 cells) | CTL activity of stimulated CTLp, donor A (peptide pulsed T2 cells; [6]) | CTL activity of stimulated CTLp, donor B (peptide pulsed T2 cells; [6]) | CTL activity of stimulated CTLp, donor C (peptide pulsed T2 cells; [6]) | level of immunogenicity in HHD mice (EL4/HHD cells) | effect on in vivo growth of HCT/HHD (HCT/HHD cells [4]; adoptive transfer, nude mice) | CTL activity of stimulated CTLp, donor D (peptide pulsed T2 cells; [6]) | immunogenicity in the HHD model [5]
EMKEEQEV (listed as Homo sapiens) [Peptide 1-6, Human 1-8D gene from interferon inducible gene 20-28] | 181.3 | antigenic and immunogenic | stabilize HLA-A2 on T2 cells | lyse the human colon carcinoma line HCT-15-HHD | intermediate | better lysed | 13 | incompetent | not | low yet specific CTL activity | not |  |  |  | 
GLEKAHFWV (listed as Homo sapiens) [PSGR-6, PSGR start position 18] |  |  |  |  |  |  |  |  |  |  |  | low |  |  | 
KCLNIWALI (listed as Homo sapiens) [Peptide 3-7, Human 1-8D and 1-8U genes from interferon inducible genes 103-111] | 487.5 | antigenic and immunogenic | stabilize HLA-A2 on T2 cells | lyse the human colon carcinoma line HCT-15-HHD | least effective | better lysed | 13 | highly efficient | high CTL activity | high CTL activity | low activity |  | least effective | low activity | 
LILGIFMTI (listed as Homo sapiens) [Peptide 3-5, Human 1-8D gene from interferon inducible gene 110-118] | 176.7 | antigenic and immunogenic | stabilize HLA-A2 on T2 cells | lyse the human colon carcinoma line HCT-15-HHD | most effective | roughly equal | 11 | incompetent |  | low yet specific CTL activity | not and low yet specific CTL activity |  |  |  | 
TLNAWVKVV [HIV derived peptide] |  |  |  |  |  |  |  |  |  |  |  |  |  |  | weak immunogen
